Results published in patent US9409881B2, “Herbicidally active 6′-phenyl-2,2′-bipyridine-3-carboxylic acid derivatives” (BAYER CROPSCIENCE AG, priority 2012, dated 2016).

melting point [°C]	SMILES
221	O=C(O)c1cccnc1-c1cccc(-c2ccc(Cl)cc2)n1 [Chemical Example 3, 6′-(4-Chlorophenyl)-2,2′-bipyridine-3-carboxylic acid]
120.5	COC(=O)c1cccnc1-c1cccc(-c2ccc(Cl)cc2)n1 [Chemical Example 2, Methyl 6′-(4-chlorophenyl)-2,2′-bipyridine-3-carboxylate]
